In PubChem BioAssay AID270 (DTP/NCI, 2004):
Values joined by “and” are separate entries in the source; they are usually repeats but may differ in a detail not shown here. Equal values may be shown once. Inconclusive results are not listed.

Tested on: BDF1 mice, s.c. Lewis lung carcinoma, T/C %
Test: NCI In Vivo Anticancer Drug Screen. Data for tumor model Lewis Lung Carcinoma (subcutaneous) in B6D2F1 (BDF1) mice
In short: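 Transplanted tumors grown in mice; compound vs vehicle dosing; endpoint survival or tumor size; ratio T/C.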

In the case of `O=C1c2ccccc2C(=O)c2c(NCCNCCO)ccc(NCCNCCO)c21`, the T/C (endpoint: median survival time, dose: 0.25 mg/kg/injection, schedule: Q01DX009 (ip), vehicle: Klucel (hydroxypropylcellulose) (HPC), higher = longer survival) was 120 % of control, the T/C (endpoint: median survival time, dose: 0.25 mg/kg/injection, schedule: Q01DX009 (ip), vehicle: water, higher = longer survival) was 106 % of control and the T/C (endpoint: median survival time, dose: 0.5 mg/kg/injection, schedule: Q01DX009 (ip), vehicle: Klucel (hydroxypropylcellulose) (HPC), higher = longer survival) was 123 % of control. For the same molecule, the T/C (endpoint: median survival time, dose: 0.5 mg/kg/injection, schedule: Q01DX009 (ip), vehicle: saline with Tween-80, higher = longer survival) was 86 % of control, the T/C (endpoint: median survival time, dose: 0.5 mg/kg/injection, schedule: Q01DX009 (ip), vehicle: saline, higher = longer survival) was 114 % of control and the T/C (endpoint: median survival time, dose: 0.5 mg/kg/injection, schedule: Q01DX009 (ip), vehicle: water, higher = longer survival) was 109 % of control. The T/C (endpoint: median survival time, dose: 1.0 mg/kg/injection, schedule: Q01DX009 (ip), vehicle: Klucel (hydroxypropylcellulose) (HPC), higher = longer survival) was 101 % of control, the T/C (endpoint: median survival time, dose: 1.0 mg/kg/injection, schedule: Q01DX009 (ip), vehicle: saline with Tween-80, higher = longer survival) was 115 % of control and the T/C (endpoint: median survival time, dose: 1.0 mg/kg/injection, schedule: Q01DX009 (ip), vehicle: saline, higher = longer survival) was 92 % of control and 94 % of control and 108 % of control. The T/C (endpoint: median survival time, dose: 1.0 mg/kg/injection, schedule: Q01DX009 (ip), vehicle: water, higher = longer survival) was 89 % of control, the T/C (endpoint: median survival time, dose: 2.0 mg/kg/injection, schedule: Q01DX009 (ip), vehicle: Klucel (hydroxypropylcellulose) (HPC), higher = longer survival) was 89 % of control and the T/C (endpoint: median survival time, dose: 2.0 mg/kg/injection, schedule: Q01DX009 (ip), vehicle: acid diluted with saline, higher = longer survival) was 89 % of control. The T/C (endpoint: median survival time, dose: 2.0 mg/kg/injection, schedule: Q01DX009 (ip), vehicle: saline with Tween-80, higher = longer survival) was 95 % of control, the T/C (endpoint: median survival time, dose: 2.0 mg/kg/injection, schedule: Q01DX009 (ip), vehicle: saline, higher = longer survival) was 102 % of control and the T/C (endpoint: median survival time, dose: 2.0 mg/kg/injection, schedule: Q01DX009 (ip), vehicle: water, higher = longer survival) was 96 % of control and 115 % of control. For the same molecule, the T/C (endpoint: median survival time, dose: 4.0 mg/kg/injection, schedule: Q01DX009 (ip), vehicle: acid diluted with saline, higher = longer survival) was 95 % of control, the T/C (endpoint: median survival time, dose: 4.0 mg/kg/injection, schedule: Q01DX009 (ip), vehicle: other, higher = longer survival) was 106 % of control and the T/C (endpoint: median survival time, dose: 4.0 mg/kg/injection, schedule: Q01DX009 (ip), vehicle: saline, higher = longer survival) was 91 % of control. For the same molecule, the T/C (endpoint: median survival time, dose: 4.0 mg/kg/injection, schedule: Q01DX009 (ip), vehicle: water, higher = longer survival) was 88 % of control and 105 % of control, the T/C (endpoint: median survival time, dose: 8.0 mg/kg/injection, schedule: Q01DX009 (ip), vehicle: Klucel (hydroxypropylcellulose) (HPC), higher = longer survival) was 109 % of control and 120 % of control and the T/C (endpoint: median survival time, dose: 8.0 mg/kg/injection, schedule: Q01DX009 (ip), vehicle: acid diluted with saline, higher = longer survival) was 90 % of control. The T/C (endpoint: median survival time, dose: 8.0 mg/kg/injection, schedule: Q01DX009 (ip), vehicle: other, higher = longer survival) was 103 % of control, the T/C (endpoint: median survival time, dose: 8.0 mg/kg/injection, schedule: Q01DX009 (ip), vehicle: saline, higher = longer survival) was 95 % of control and the T/C (endpoint: median survival time, dose: 8.0 mg/kg/injection, schedule: Q01DX009 (ip), vehicle: water, higher = longer survival) was 88 % of control. For the same molecule, the T/C (endpoint: median survival time, dose: 10.0 mg/kg/injection, schedule: Q## X004 (ip), vehicle: saline, higher = longer survival) was 97 % of control, the T/C (endpoint: median survival time, dose: 16.0 mg/kg/injection, schedule: Q01DX009 (ip), vehicle: Klucel (hydroxypropylcellulose) (HPC), higher = longer survival) was 107 % of control and the T/C (endpoint: median survival time, dose: 16.0 mg/kg/injection, schedule: Q01DX009 (ip), vehicle: acid diluted with saline, higher = longer survival) was 100 % of control. For the same molecule, the T/C (endpoint: median survival time, dose: 16.0 mg/kg/injection, schedule: Q01DX009 (ip), vehicle: saline, higher = longer survival) was 99 % of control, the T/C (endpoint: median survival time, dose: 16.0 mg/kg/injection, schedule: Q01DX009 (ip), vehicle: water, higher = longer survival) was 102 % of control and the T/C (endpoint: median survival time, dose: 20.0 mg/kg/injection, schedule: Q## X004 (ip), vehicle: saline, higher = longer survival) was 93 % of control. For the same molecule, the T/C (endpoint: median survival time, dose: 40.0 mg/kg/injection, schedule: Q## X004 (ip), vehicle: saline, higher = longer survival) was 93 % of control.
With `CC(=O)NCCSC(=O)C(=O)SCCNC(C)=O` the T/C (endpoint: mean tumor weight, dose: 25.0 mg/kg/injection, schedule: Q01DX011 (ip), vehicle: saline, higher = larger tumour) was 95 % of control, the T/C (endpoint: mean tumor weight, dose: 50.0 mg/kg/injection, schedule: Q01DX011 (ip), vehicle: saline, higher = larger tumour) was 106 % of control and the T/C (endpoint: mean tumor weight, dose: 100.0 mg/kg/injection, schedule: Q01DX011 (ip), vehicle: saline, higher = larger tumour) was 67 % of control.
For `O=C1N(Br)C(=O)C(c2ccc(Cl)cc2)(c2ccc(Cl)cc2)N1Br`, the T/C (endpoint: median survival time, dose: 3.12 mg/kg/injection, schedule: Q01DX009 (ip), vehicle: Klucel (hydroxypropylcellulose) (HPC), higher = longer survival) was 100 % of control, the T/C (endpoint: median survival time, dose: 6.25 mg/kg/injection, schedule: Q01DX009 (ip), vehicle: Klucel (hydroxypropylcellulose) (HPC), higher = longer survival) was 97 % of control and the T/C (endpoint: median survival time, dose: 12.5 mg/kg/injection, schedule: Q01DX009 (ip), vehicle: Klucel (hydroxypropylcellulose) (HPC), higher = longer survival) was 102 % of control. For the same molecule, the T/C (endpoint: median survival time, dose: 25.0 mg/kg/injection, schedule: Q01DX009 (ip), vehicle: Klucel (hydroxypropylcellulose) (HPC), higher = longer survival) was 96 % of control.
In the case of `Nc1ccn(C2OC(CO)C(O)C2O)c(=O)n1` (stereo not drawn), the T/C (endpoint: mean tumor weight, dose: 20.0 mg/kg/injection, schedule: Q01DX011 (ip), vehicle: saline, higher = larger tumour) was 55 % of control, the T/C (endpoint: mean tumor weight, dose: 40.0 mg/kg/injection, schedule: Q01DX011 (ip), vehicle: saline, higher = larger tumour) was 40 % of control and the T/C (endpoint: median survival time, dose: 1.0 mg/kg/injection, schedule: Q01DX011 (adlb), vehicle: water, higher = longer survival) was 110 % of control. For the same molecule, the T/C (endpoint: median survival time, dose: 2.0 mg/kg/injection, schedule: Q01DX011 (adlb), vehicle: water, higher = longer survival) was 100 % of control, the T/C (endpoint: median tumor weight (est.), dose: 2.7 mg/kg/injection, schedule: Q03HX032 (ip), vehicle: saline, higher = larger tumour) was 43 % of control and the T/C (endpoint: median tumor weight (est.), dose: 4.0 mg/kg/injection, schedule: Q03HX024 (ip), vehicle: saline, higher = larger tumour) was 50 % of control. For the same molecule, the T/C (endpoint: median tumor weight (est.), dose: 4.0 mg/kg/injection, schedule: Q03HX032 (ip), vehicle: saline, higher = larger tumour) was 36 % of control, the T/C (endpoint: median tumor weight (est.), dose: 5.3 mg/kg/injection, schedule: Q03HX016 (ip), vehicle: saline, higher = larger tumour) was 59 % of control and the T/C (endpoint: median tumor weight (est.), dose: 6.0 mg/kg/injection, schedule: Q03HX024 (ip), vehicle: saline, higher = larger tumour) was 34 % of control. For the same molecule, the T/C (endpoint: median tumor weight (est.), dose: 8.0 mg/kg/injection, schedule: Q03HX016 (ip), vehicle: saline, higher = larger tumour) was 67 % of control, the T/C (endpoint: median tumor weight (est.), dose: 10.0 mg/kg/injection, schedule: Q03HX008 (ip), vehicle: saline, higher = larger tumour) was 62 % of control and the T/C (endpoint: median tumor weight (est.), dose: 10.0 mg/kg/injection, schedule: Q03HX032 (ip), vehicle: saline, higher = larger tumour) was 59 % of control. For the same molecule, the T/C (endpoint: median tumor weight (est.), dose: 12.0 mg/kg/injection, schedule: Q03HX016 (ip), vehicle: saline, higher = larger tumour) was 32 % of control, the T/C (endpoint: median tumor weight (est.), dose: 12.5 mg/kg/injection, schedule: Q01DX009 (ip), vehicle: saline, higher = larger tumour) was 93 % of control and the T/C (endpoint: median tumor weight (est.), dose: 15.0 mg/kg/injection, schedule: Q03HX032 (ip), vehicle: saline, higher = larger tumour) was 55 % of control. The T/C (endpoint: median tumor weight (est.), dose: 16.0 mg/kg/injection, schedule: Q03HX008 (ip), vehicle: saline, higher = larger tumour) was 57 % of control, the T/C (endpoint: median tumor weight (est.), dose: 20.0 mg/kg/injection, schedule: Q01DX015 (ip), vehicle: saline, higher = larger tumour) was 74 % of control and the T/C (endpoint: median tumor weight (est.), dose: 20.0 mg/kg/injection, schedule: Q06HX020 (ip), vehicle: saline, higher = larger tumour) was 70 % of control. For the same molecule, the T/C (endpoint: median tumor weight (est.), dose: 20.0 mg/kg/injection, schedule: Q12HX027 (ip), vehicle: saline, higher = larger tumour) was 62 % of control, the T/C (endpoint: median tumor weight (est.), dose: 22.5 mg/kg/injection, schedule: Q03HX032 (ip), vehicle: saline, higher = larger tumour) was 48 % of control and the T/C (endpoint: median tumor weight (est.), dose: 24.0 mg/kg/injection, schedule: Q03HX008 (ip), vehicle: saline, higher = larger tumour) was 54 % of control. For the same molecule, the T/C (endpoint: median tumor weight (est.), dose: 25.0 mg/kg/injection, schedule: Q01DX009 (ip), vehicle: saline, higher = larger tumour) was 100 % of control, the T/C (endpoint: median tumor weight (est.), dose: 26.0 mg/kg/injection, schedule: Q01DX011 (ip), vehicle: saline, higher = larger tumour) was 68 % of control and the T/C (endpoint: median tumor weight (est.), dose: 30.0 mg/kg/injection, schedule: Q01DX015 (ip), vehicle: saline, higher = larger tumour) was 67 % of control. The T/C (endpoint: median tumor weight (est.), dose: 30.0 mg/kg/injection, schedule: Q06HX020 (ip), vehicle: saline, higher = larger tumour) was 45 % of control, the T/C (endpoint: median tumor weight (est.), dose: 36.0 mg/kg/injection, schedule: Q03HX008 (ip), vehicle: saline, higher = larger tumour) was 24 % of control and the T/C (endpoint: median tumor weight (est.), dose: 38.0 mg/kg/injection, schedule: Q01DX011 (ip), vehicle: saline, higher = larger tumour) was 75 % of control. For the same molecule, the T/C (endpoint: median tumor weight (est.), dose: 45.0 mg/kg/injection, schedule: Q01DX015 (ip), vehicle: saline, higher = larger tumour) was 73 % of control, the T/C (endpoint: median tumor weight (est.), dose: 45.0 mg/kg/injection, schedule: Q06HX020 (ip), vehicle: saline, higher = larger tumour) was 30 % of control and the T/C (endpoint: median tumor weight (est.), dose: 50.0 mg/kg/injection, schedule: Q01DX009 (ip), vehicle: saline, higher = larger tumour) was 60 % of control. The T/C (endpoint: median tumor weight (est.), dose: 150.0 mg/kg/injection, schedule: Q12HX012 (ip), vehicle: saline, higher = larger tumour) was 5 % of control, the T/C (endpoint: median tumor weight (est.), dose: 220.0 mg/kg/injection, schedule: Q12HX012 (ip), vehicle: saline, higher = larger tumour) was 2 % of control and the T/C (endpoint: median tumor weight (est.), dose: 250.0 mg/kg/injection, schedule: Q04DX003 (ip), vehicle: saline, higher = larger tumour) was 74 % of control. For the same molecule, the T/C (endpoint: median tumor weight (est.), dose: 1000.0 mg/kg/injection, schedule: Q04DX003 (ip), vehicle: saline, higher = larger tumour) was 64 % of control.
`CCN=C=NCCCN(C)C` was tested, and the T/C (endpoint: median survival time, dose: 10.0 mg/kg/injection, schedule: Q01DX009 (ip), vehicle: saline, higher = longer survival) was 106 % of control, the T/C (endpoint: median survival time, dose: 20.0 mg/kg/injection, schedule: Q01DX009 (ip), vehicle: saline, higher = longer survival) was 107 % of control and the T/C (endpoint: median survival time, dose: 40.0 mg/kg/injection, schedule: Q01DX009 (ip), vehicle: saline, higher = longer survival) was 93 % of control. The T/C (endpoint: median survival time, dose: 80.0 mg/kg/injection, schedule: Q01DX009 (ip), vehicle: saline, higher = longer survival) was 96 % of control.
For `Cc1ccc(Oc2ccc3cc[n+](C)cc3c2)cc1`, the T/C (endpoint: median survival time, dose: 6.25 mg/kg/injection, schedule: Q01DX009 (ip), vehicle: saline, higher = longer survival) was 96 % of control and the T/C (endpoint: median survival time, dose: 12.5 mg/kg/injection, schedule: Q01DX009 (ip), vehicle: saline, higher = longer survival) was 101 % of control.
